This note sets out measurements from patent publication US12497365B2, “4-pyridinyl formamide compound or derivative thereof, preparation method therefor, herbicidal composition and use thereof” (Qingdao Kingagroot Chemical Compound Co., Ltd., priority 2019, dated 2025).

Holding throughout (assay): Weeding effect in post-emergence stage
Common to all, as to format: in vivo
Details in all cases: active ingredient 2000 g/ha, 3 weeks after application, fresh weight control rate

Assay [1] concerns Amaranthus retroflexus L. The gist of the method: (§1)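 Weeds sown in soil-filled pots under 0.5-2 cm cover were grown in a greenhouse and sprayed at the 2-3 leaf stage, 2 weeks after sowing. Compounds in acetone with Tween 80 and 1.5 liter/ha methyl oleate concentrate were applied at 2000, 1000, 500, 250 or 125 g/ha. Fresh weight control rate was scored after 3 weeks.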
The subject of assay [2] is Descurainia sophia. The gist of the method: as §1
In assay [3] the test system is Chenopodium album. In outline:
as §1

For assay [4], the system named is Abutilon theophrasti. The gist of the method:
as §1

`Cn1nnnc1NC(=O)c1ccnc(C2CC2)c1Cl` [Compound 1-3]: the “Weeding effect, activity level (growth control rate), Amaranthus retroflexus L.” value (from here on “Weeding effect … Amaranthus retroflexus L.”) in assay [1] is recorded as 5 (Level 5: growth control rate is above 85%). Further, in assay [2], the “Weeding effect, activity level (growth control rate), Descurainia sophia” value (shortened to “Weeding effect … Descurainia sophia”) is given as 5 (Level 5: growth control rate is above 85%). Besides, the “Weeding effect, activity level (growth control rate), Chenopodium album” value (“Weeding effect … Chenopodium album” for short) in assay [3] is 5 (Level 5: growth control rate is above 85%). Besides, the “Weeding effect, activity level (growth control rate), Abutilon theophrasti” value (shortened to “Weeding effect … Abutilon theophrasti”) in assay [4] is 5 (Level 5: growth control rate is above 85%).
Consider `Cn1nnnc1NC(=O)c1ccnc(-c2ccnc(Cl)c2Cl)c1Cl` [Compound 1-152], for which the “Weeding effect … Amaranthus retroflexus L.” value in assay [1] is 5 (Level 5: growth control rate is above 85%). Also, the “Weeding effect … Descurainia sophia” value in assay [2] is 5 (Level 5: growth control rate is above 85%). Besides, in assay [3], the “Weeding effect … Chenopodium album” value is 5 (Level 5: growth control rate is above 85%). The “Weeding effect … Abutilon theophrasti” value in assay [4] is 5 (Level 5: growth control rate is above 85%).
On to `Cn1nnnc1NC(=O)c1ccnc(-c2cc(Br)ccc2Br)c1Cl` [Compound 1-96], for which the “Weeding effect … Amaranthus retroflexus L.” value in assay [1] is 5 (Level 5: growth control rate is above 85%). Besides, in assay [2], the “Weeding effect … Descurainia sophia” value is 5 (Level 5: growth control rate is above 85%). Also, the “Weeding effect … Chenopodium album” value in assay [3] was 5 (Level 5: growth control rate is above 85%). The “Weeding effect … Abutilon theophrasti” value in assay [4] was 5 (Level 5: growth control rate is above 85%).
Turning to `Cn1nnnc1NC(=O)c1ccnc(-c2ccc(F)c(Cl)c2)c1Cl` [Compound 1-92], the “Weeding effect … Amaranthus retroflexus L.” value in assay [1] is 5 (Level 5: growth control rate is above 85%). Further, the “Weeding effect … Descurainia sophia” value in assay [2] is on record as 5 (Level 5: growth control rate is above 85%). For the same molecule, the “Weeding effect … Chenopodium album” value in assay [3] was 5 (Level 5: growth control rate is above 85%). The “Weeding effect … Abutilon theophrasti” value in assay [4] was 5 (Level 5: growth control rate is above 85%).
Regarding `Cn1nnnc1NC(=O)c1ccnc(-c2cccs2)c1Cl` [Compound 1-186], the “Weeding effect … Amaranthus retroflexus L.” value in assay [1] is on record as 5 (Level 5: growth control rate is above 85%). The “Weeding effect … Descurainia sophia” value in assay [2] is 5 (Level 5: growth control rate is above 85%). The “Weeding effect … Chenopodium album” value in assay [3] is given as 5 (Level 5: growth control rate is above 85%). The “Weeding effect … Abutilon theophrasti” value in assay [4] is given as 5 (Level 5: growth control rate is above 85%).
`Cn1nnnc1NC(=O)c1ccnc(-c2ccc(Cl)c(F)c2)c1Cl` [Compound 1-91]: the “Weeding effect … Amaranthus retroflexus L.” value in assay [1] is 5 (Level 5: growth control rate is above 85%). In addition, the “Weeding effect … Descurainia sophia” value in assay [2] is given as 5 (Level 5: growth control rate is above 85%). Besides, the “Weeding effect … Chenopodium album” value in assay [3] was 5 (Level 5: growth control rate is above 85%). The “Weeding effect … Abutilon theophrasti” value in assay [4] is on record as 5 (Level 5: growth control rate is above 85%).
Consider `Cn1nnnc1NC(=O)c1ccnc(-c2cc3ccccc3c3ccccc23)c1Cl` [Compound 1-115], for which the “Weeding effect … Amaranthus retroflexus L.” value in assay [1] was 5 (Level 5: growth control rate is above 85%). In addition, the “Weeding effect … Descurainia sophia” value in assay [2] was 5 (Level 5: growth control rate is above 85%). The “Weeding effect … Chenopodium album” value in assay [3] is 5 (Level 5: growth control rate is above 85%). Also, in assay [4], the “Weeding effect … Abutilon theophrasti” value is 5 (Level 5: growth control rate is above 85%).
Consider `Cn1nnnc1NC(=O)c1ccnc(-c2cccnc2Cl)c1Cl` [Compound 1-130], for which, in assay [1], the “Weeding effect … Amaranthus retroflexus L.” value is 5 (Level 5: growth control rate is above 85%). Also, the “Weeding effect … Descurainia sophia” value in assay [2] was 5 (Level 5: growth control rate is above 85%). Also, in assay [3], the “Weeding effect … Chenopodium album” value is 5 (Level 5: growth control rate is above 85%). Further, in assay [4], the “Weeding effect … Abutilon theophrasti” value is on record as 5 (Level 5: growth control rate is above 85%).
Regarding `Cn1nnnc1NC(=O)c1ccnc(C2=CCN(C(=O)OC(C)(C)C)CC2)c1Cl` [Compound 1-6], the “Weeding effect … Amaranthus retroflexus L.” value in assay [1] is reported as 5 (Level 5: growth control rate is above 85%). For the same molecule, the “Weeding effect … Descurainia sophia” value in assay [2] is reported as 5 (Level 5: growth control rate is above 85%). For the same molecule, the “Weeding effect … Chenopodium album” value in assay [3] was 5 (Level 5: growth control rate is above 85%). For the same molecule, in assay [4], the “Weeding effect … Abutilon theophrasti” value is 5 (Level 5: growth control rate is above 85%).
`Cc1ccc(-c2nccc(C(=O)Nc3nnnn3C)c2Cl)c(F)c1` [Compound 1-69]: in assay [1], the “Weeding effect … Amaranthus retroflexus L.” value was 5 (Level 5: growth control rate is above 85%). Besides, the “Weeding effect … Descurainia sophia” value in assay [2] is recorded as 5 (Level 5: growth control rate is above 85%). Besides, in assay [3], the “Weeding effect … Chenopodium album” value is on record as 5 (Level 5: growth control rate is above 85%). Besides, the “Weeding effect … Abutilon theophrasti” value in assay [4] is 5 (Level 5: growth control rate is above 85%).
In the case of `Cn1nnnc1NC(=O)c1ccnc(-c2ccc(N3CCOCC3)nc2)c1Cl` [Compound 1-146], the “Weeding effect … Amaranthus retroflexus L.” value in assay [1] is on record as 5 (Level 5: growth control rate is above 85%). Moreover, the “Weeding effect … Descurainia sophia” value in assay [2] is reported as 5 (Level 5: growth control rate is above 85%). Moreover, in assay [3], the “Weeding effect … Chenopodium album” value was 5 (Level 5: growth control rate is above 85%). Besides, in assay [4], the “Weeding effect … Abutilon theophrasti” value is 5 (Level 5: growth control rate is above 85%).
In the case of `Cn1nnnc1NC(=O)c1ccnc(-c2ccc(C#N)nn2)c1Cl` [Compound 1-155], the “Weeding effect … Amaranthus retroflexus L.” value in assay [1] is recorded as 5 (Level 5: growth control rate is above 85%). Moreover, the “Weeding effect … Descurainia sophia” value in assay [2] is recorded as 5 (Level 5: growth control rate is above 85%). In assay [3], the “Weeding effect … Chenopodium album” value was 5 (Level 5: growth control rate is above 85%). For the same molecule, the “Weeding effect … Abutilon theophrasti” value in assay [4] is listed as 5 (Level 5: growth control rate is above 85%).
Regarding `Cn1nnnc1NC(=O)c1ccnc(-c2ccc(F)cn2)c1Cl` [Compound 1-123], the “Weeding effect … Amaranthus retroflexus L.” value in assay [1] is 5 (Level 5: growth control rate is above 85%). In assay [2], the “Weeding effect … Descurainia sophia” value is on record as 5 (Level 5: growth control rate is above 85%). Besides, the “Weeding effect … Chenopodium album” value in assay [3] was 5 (Level 5: growth control rate is above 85%). Also, the “Weeding effect … Abutilon theophrasti” value in assay [4] was 5 (Level 5: growth control rate is above 85%).
With `Cn1nnnc1NC(=O)c1ccnc(-c2cncc(C#N)c2)c1Cl` [Compound 1-133], the “Weeding effect … Amaranthus retroflexus L.” value in assay [1] is on record as 5 (Level 5: growth control rate is above 85%). In addition, the “Weeding effect … Descurainia sophia” value in assay [2] is given as 5 (Level 5: growth control rate is above 85%). Also, the “Weeding effect … Chenopodium album” value in assay [3] is listed as 5 (Level 5: growth control rate is above 85%). Also, in assay [4], the “Weeding effect … Abutilon theophrasti” value was 5 (Level 5: growth control rate is above 85%).
